From patent US10370366B2 (Flatley Discovery Lab, LLC, priority 2013, dated 2019)

Biological target: T1, human F508del CFTR (Homo sapiens, UniProt P13569, DEL508-508)
T1 construct: expressed in transfected cells; host or cells: Fisher Rat Thyroid (FRT) cells
Experiment: CFTR-YFP High Throughput Assay
Type: cell-based
Conditions: FRT cells expressing human F508del CFTR and YFP; for Emax: EMax normalized to the positive control, read-out: % Efficacy
How it was run: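 Corrector mode: 24-26 h compound exposure (2 nM-40 μM, 37° C) of FRT cells carrying human F508del CFTR and YFP-H148Q/I152L, followed by washing and 60-120 min RT stimulation with 20 μM forskolin and 30 μM P3. CFTR activity is the least-squares-fitted rate of YFP quenching (Ex 500/Em 540 nm) after iodide addition.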

T1 sequence (P13569 with tags, fused parts or gaps DEL508-508): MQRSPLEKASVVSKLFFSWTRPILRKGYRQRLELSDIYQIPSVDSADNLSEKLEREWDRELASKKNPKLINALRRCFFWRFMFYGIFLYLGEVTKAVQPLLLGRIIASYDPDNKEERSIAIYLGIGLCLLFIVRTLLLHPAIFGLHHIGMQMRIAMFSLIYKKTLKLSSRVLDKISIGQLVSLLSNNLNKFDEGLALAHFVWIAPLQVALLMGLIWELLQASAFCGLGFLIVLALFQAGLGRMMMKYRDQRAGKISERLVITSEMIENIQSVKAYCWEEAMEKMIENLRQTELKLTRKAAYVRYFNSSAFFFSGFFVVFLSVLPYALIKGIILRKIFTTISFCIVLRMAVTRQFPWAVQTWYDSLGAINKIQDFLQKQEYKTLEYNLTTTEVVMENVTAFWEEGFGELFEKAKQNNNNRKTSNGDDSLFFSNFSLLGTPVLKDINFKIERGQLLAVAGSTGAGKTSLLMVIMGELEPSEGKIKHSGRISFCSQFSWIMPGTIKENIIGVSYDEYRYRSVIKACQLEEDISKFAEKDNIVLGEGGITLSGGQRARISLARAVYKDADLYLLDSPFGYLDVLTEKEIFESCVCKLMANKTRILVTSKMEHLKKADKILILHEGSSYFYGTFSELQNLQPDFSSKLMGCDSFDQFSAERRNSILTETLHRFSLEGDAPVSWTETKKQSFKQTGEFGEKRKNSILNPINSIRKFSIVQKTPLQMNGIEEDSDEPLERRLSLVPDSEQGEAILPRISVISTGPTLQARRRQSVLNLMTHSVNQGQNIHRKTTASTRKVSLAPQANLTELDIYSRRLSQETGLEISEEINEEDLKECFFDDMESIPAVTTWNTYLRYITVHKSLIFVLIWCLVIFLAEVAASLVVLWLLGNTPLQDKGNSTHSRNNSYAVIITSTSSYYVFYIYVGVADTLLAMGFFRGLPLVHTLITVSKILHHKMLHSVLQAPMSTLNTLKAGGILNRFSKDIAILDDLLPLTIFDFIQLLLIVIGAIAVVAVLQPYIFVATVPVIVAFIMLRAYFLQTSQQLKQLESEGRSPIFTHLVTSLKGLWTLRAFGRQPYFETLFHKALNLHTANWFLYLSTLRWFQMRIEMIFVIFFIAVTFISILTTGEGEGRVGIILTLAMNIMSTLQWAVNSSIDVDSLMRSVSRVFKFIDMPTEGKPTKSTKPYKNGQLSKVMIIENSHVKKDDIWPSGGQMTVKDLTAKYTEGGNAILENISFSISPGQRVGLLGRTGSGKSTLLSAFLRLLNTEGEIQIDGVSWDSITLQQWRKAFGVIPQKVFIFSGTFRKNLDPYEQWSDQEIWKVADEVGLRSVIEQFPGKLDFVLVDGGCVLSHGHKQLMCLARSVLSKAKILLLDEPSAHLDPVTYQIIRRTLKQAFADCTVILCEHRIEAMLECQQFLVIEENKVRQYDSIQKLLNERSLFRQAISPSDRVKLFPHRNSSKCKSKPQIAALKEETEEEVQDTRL

Structure (SMILES)	Emax [%]	EC50 [µM]
CCN(C(=O)c1nn(-c2ccc(C)cc2)c(=O)c2c1c1ccccc1n2CC#N)c1ccccc1 [Example 223, 5-(cyanomethyl)-N-ethyl-4-oxo-N-phenyl-3-(p-tolyl)-4,5-dihydro-3H-pyridazino[4,5-b]indole-1-carboxamide]	30 to 80	
CCN(C(=O)c1nn(-c2ccc(C)cc2)c(=O)c2c1c1ccccc1n2CC(=O)O)c1ccccc1 [Example 224, 2-(1-(ethyl(phenyl)carbamoyl)-4-oxo-3-(p-tolyl)-3H-pyridazino[4,5-b]indol-5(4H)-yl)acetic acid]	30 to 80	
CCN(C(=O)c1nn(-c2ccc(C)cc2)c(=O)c2c1c1ccccc1n2C(C)C)c1ccccc1 [Example 225, N-ethyl-5-isopropyl-4-oxo-N-phenyl-3-(p-tolyl)-4,5-dihydro-3H-pyridazino[4,5-b]indole-1-carboxamide]	30 to 80	
CCN(C(=O)c1nn(-c2ccc(C)cc2)c(=O)c2c1c1ccccc1n2Cc1ccccn1)c1ccccc1 [Example 226, N-ethyl-4-oxo-N-phenyl-5-(pyridin-2-ylmethyl)-3-(p-tolyl)-4,5-dihydro-3H-pyridazino[4,5-b]indole-1-carboxamide]	30 to 80	
CCN(C(=O)c1nn(CCOC)c(=O)c2c1c1ccccc1n2C)c1ccccc1 [Example 227, N-ethyl-3-(2-methoxyethyl)-5-methyl-4-oxo-N-phenyl-4,5-dihydro-3H-pyridazino[4,5-b]indole-1-carboxamide]	30 to 80	< 10
CCN(C(=O)c1nn(C[C@@H](O)COC)c(=O)c2c1c1ccccc1n2C)c1ccccc1 [Example 228, (R)-N-ethyl-3-(2-hydroxy-3-methoxypropyl)-5-methyl-4-oxo-N-phenyl-4,5-dihydro-3H-pyridazino[4,5-b]indole-1-carboxamide]	30 to 80	< 10
CCN(C(=O)c1nn(C[C@@H](O)CO)c(=O)c2c1c1ccccc1n2C)c1ccccc1 [Example 229, (R)-3-(2,3-dihydroxypropyl)-N-ethyl-5-methyl-4-oxo-N-phenyl-4,5-dihydro-3H-pyridazino[4,5-b]indole-1-carboxamide]	30 to 80	< 10
CCN(C(=O)c1nn(C[C@@H](O)COCc2ccccc2)c(=O)c2c1c1ccccc1n2C)c1ccccc1 [Example 230, (R)-3-(3-(benzyloxy)-2-hydroxypropyl)-N-ethyl-5-methyl-4-oxo-N-phenyl-4,5-dihydro-3H-pyridazino[4,5-b]indole-1-carboxamide]	30 to 80	< 10
CCN(CC)C(=O)c1nn(CC(O)COCc2ccccc2)c(=O)c2c1c1c(OC)cccc1n2C (stereo not shown) [Example 231, 3-(3-(benzyloxy)-2-hydroxypropyl)-N,N-diethyl-9-methoxy-5-methyl-4-oxo-4,5-dihydro-3H-pyridazino[4,5-b]indole-1-carboxamide]	30 to 80	< 10
CCN(CC)C(=O)c1nn(CC(O)COCc2ccccc2)c(=O)c2c1c1c(C)cccc1n2C (stereo not shown) [Example 232, 3-(3-(benzyloxy)-2-hydroxypropyl)-N,N-diethyl-5,9-dimethyl-4-oxo-4,5-dihydro-3H-pyridazino[4,5-b]indole-1-carboxamide]	30 to 80	< 10
CCN(CC)C(=O)c1nn(CC(O)COCc2ccccc2)c(=O)c2c1c1c(Cl)cccc1n2C (stereo not shown) [Example 233, 3-(3-(benzyloxy)-2-hydroxypropyl)-9-chloro-N,N-diethyl-5-methyl-4-oxo-4,5-dihydro-3H-pyridazino[4,5-b]indole-1-carboxamide]	30 to 80	< 10
CCN(CC)C(=O)c1nn(CC(O)COCc2ccccc2)c(=O)c2c1c1c(F)cccc1n2C (stereo not shown) [Example 234, 3-(3-(benzyloxy)-2-hydroxypropyl)-N,N-diethyl-9-fluoro-5-methyl-4-oxo-4,5-dihydro-3H-pyridazino[4,5-b]indole-1-carboxamide]	30 to 80	< 10
Cn1c2ccccc2c2c(-c3ccccc3)nn(-c3ccccc3)c(=O)c21 [Example 235]	10 to 30	> 20
Cc1ccc(-n2nc(-c3ccccc3)c3c4ccccc4n(C)c3c2=O)cc1 [Example 236, 5-methyl-1-phenyl-3-(p-tolyl)-3H-pyridazino[4,5-b]indol-4(5H)-one]	10 to 30	> 20
Cn1c2ccccc2c2c(-c3ccccc3)nn(-c3ccccc3F)c(=O)c21 [Example 237, 3-(2-fluorophenyl)-5-methyl-1-phenyl-3H-pyridazino[4,5-b]indol-4(5H)-one]	10 to 30	> 20
CCN(C(=O)Cn1nc(Cc2cccnc2)c2c3ccccc3n(C)c2c1=O)c1ccc2c(c1)OC(F)(F)O2 [Example 238, N-(2,2-difluorobenzo[d][1, 3]dioxol-5-yl)-N-ethyl-2-(5-methyl-4-oxo-1-(pyridin-3-ylmethyl)-4,5-dihydro-3H-pyridazino[4,5-b]indol-3-yl)acetamide]	30 to 80	< 10

Structure (SMILES)	Emax [%]	EC50 [µM]
CC(C)n1nc(-c2ccccc2)c2c3ccccc3n(C)c2c1=O [Example 239, 3-isopropyl-5-methyl-1-phenyl-3,5-dihydro-4H-pyridazino[4,5-b]indol-4-one]	30 to 80	> 20
CC(C)n1nc(-c2cccc(C#N)c2)c2c3ccccc3n(C)c2c1=O [Example 240, 3-(3-isopropyl-5-methyl-4-oxo-4,5-dihydro-3H-pyridazino[4,5-b]indol-1-yl)benzonitrile]	30 to 80	> 20
Cn1c2ccccc2c2c(-c3ccccc3)nn(C3CCCCC3)c(=O)c21 [Example 241, 3-cyclohexyl-5-methyl-1-phenyl-3,5-dihydro-4H-pyridazino[4,5-b]indol-4-one]	30 to 80	< 10
Cc1ccc(-n2nc(Cn3ccnc3)c3c4ccccc4n(C)c3c2=O)cc1 [Example 242, 1-((1H-imidazol-1-yl)methyl)-5-methyl-3-(p-tolyl)-3,5-dihydro-4H-pyridazino[4,5-b]indol-4-one]	30 to 80	> 20
Cc1ccc(-n2nc(CN3CCOCC3)c3c4ccccc4n(C)c3c2=O)cc1 [Example 243, 5-methyl-1-(morpholinomethyl)-3-(p-tolyl)-3,5-dihydro-4H-pyridazino[4,5-b]indol-4-one]	30 to 80	< 10
Cn1c2ccccc2c2c(-c3cccc(C#N)c3)nn(C3CCCCC3)c(=O)c21 [Example 244, 3-(3-cyclohexyl-5-methyl-4-oxo-4,5-dihydro-3H-pyridazino[4,5-b]indol-1-yl)benzonitrile]	30 to 80	< 10
CCN(C(=O)c1nn(-c2ccc(C)cc2)c(=O)c2c1c1sc(C)cc1n2C)c1ccccc1 [Example 245, N-ethyl-2,4-dimethyl-5-oxo-N-phenyl-6-(p-tolyl)-5,6-dihydro-4H-thieno[2′,3′:4,5]pyrrolo[2,3-d]pyridazine-8-carboxamide]	10 to 30	< 10
CCN(C(=O)c1nn(C(C)C)c(=O)c2c1c1sc(C)cc1n2C)c1ccccc1 [Example 246, N-ethyl-6-isopropyl-2,4-dimethyl-5-oxo-N-phenyl-5,6-dihydro-4H-thieno[2′,3′:4,5]pyrrolo[2,3-d]pyridazine-8-carboxamide]	30 to 80	> 20
CCN(C(=O)c1nn(-c2ccc(C)cc2)c(=O)c2c1c1sc(C)cc1n2C)c1ccccc1F [Example 247, N-ethyl-N-(2-fluorophenyl)-2,4-dimethyl-5-oxo-6-(p-tolyl)-5,6-dihydro-4H-thieno[2′,3′:4,5]pyrrolo[2,3-d]pyridazine-8-carboxamide]	30 to 80	> 20
Cc1ccc(-n2nc(C(=O)N(c3ccccc3)C(C)C)c3c(-c4ccccc4)onc3c2=O)cc1 [Example 248, N-isopropyl-7-oxo-N,3-diphenyl-6-(p-tolyl)-6,7-dihydroisoxazolo[3,4-d]pyridazine-4-carboxamide]	10 to 30	< 10
COc1ccc2c(-c3cccc(Cl)c3)nn(CC(=O)C3(c4ccc5c(c4)OC(F)(F)O5)CC3)c(=O)c2c1 [Example 249, 4-(3-chlorophenyl)-2-(2-(1-(2,2-difluorobenzo[d][1,3]dioxol-5-yl)cyclopropyl)-2-oxoethyl)-7-methoxyphthalazin-1(2H)-one]	> 80	< 10
COc1ccc2c(-c3cccc(F)c3)nn(CC(=O)C3(c4ccc5c(c4)OC(F)(F)O5)CC3)c(=O)c2c1 [Example 250, 2-(2-(1-(2,2-difluorobenzo[d][1,3]dioxol-5-yl)cyclopropyl)-2-oxoethyl)-4-(3-fluorophenyl)-7-methoxyphthalazin-1(2H)-one]	30 to 80	< 10
COc1ccc(C2(C(=O)Cn3nc(-c4cccc(Cl)c4)c4ccc(OC)cc4c3=O)CC2)cc1 [Example 251, 4-(3-chlorophenyl)-7-methoxy-2-(2-(1-(4-methoxyphenyl)cyclopropyl)-2-oxoethyl)phthalazin-1(2H)-one]	30 to 80	< 10
COc1ccc2c(-c3cccc(C#N)c3)nn(CC(=O)C3(c4ccc5c(c4)OC(F)(F)O5)CC3)c(=O)c2c1 [Example 252, 3-(3-(2-(1-(2,2-difluorobenzo[d][1,3]dioxol-5-yl)cyclopropyl)-2-oxoethyl)-6-methoxy-4-oxo-3,4-dihydrophthalazin-1-yl)benzonitrile]	> 80	< 10
COc1ccc2c(c1)c1c(=O)n(CC(=O)N(C)c3ccc4nc(C)oc4c3)ncc1n2Cc1ccc(C#N)cc1 [Example 259, 2-(5-(4-cyanobenzyl)-8-methoxy-1-oxo-1,5-dihydro-2H-pyridazino[4,5-b]indol-2-yl)-N-methyl-N-(2-methylbenzo[d]oxazol-6-yl)acetamide]	> 80	< 10
